Where a SMILES comes first, the peptide text is derived from it. Bridges are numbered along the chain shown (N, C = ends). [ ]: non-standard residue; d: D form. R8 = C=CCCCCCC[C@@](C)(N)C(=O)O; S5 = C=CCCC[C@](C)(N)C(=O)O
Columns and labels:
[1] = test system: HIV-IIIB; assay: Viral re-infection assay: infectivity of virions released by treated HIV-1 infected MT-2 cells; type: cell-based
Procedure: The infectivity potential of the virions released by HIV-1 infected MT-2 cells treated with different concentrations of small stapled peptides. […] Control cells were untreated or treated with 1 ug/ml of AMD3100 (CXCR-4 receptor inhibitor). Following overnight incubation the medium was completely removed and replaced with fresh medium. On the fourth day post-infection the supernatants were collected. One aliquot of each sample was mixed 1:1 with a solution of 5% Triton X-100 for p24 quantification, and stored at 4° C., another aliquot was immediately frozen at −80° C. and used to compare the infectivity of the viral particles released by treated cells to the viral particles released by untreated cells. Following p24 quantification by sandwich-ELISA MT-2 cells were infected with viral samples normalized for the p24 content to calculate the TCID50. Following overnight incubation ¾ of the medium containing the inoculum was replaced with fresh medium. On the fourth day post infection supernatants were collected for p24 quantification and the TCID50 was calculated by the Spearman-Karber statistical method.
Therefore, to infect MT-2 cells we used the maximum quantities of supernatants possible.

[2] = Circular dichroism, secondary structure in solution; type: physicochemical
Procedure: We used circular dichroism (CD) to characterize the secondary structure of NYAD-1 and CAI in the uncomplexed state in solution. CD spectra were obtained on a Jasco J-715 Spectropolarimeter (Jasco Inc.) at 20° C. using the standard measurement parameters in Tris-HCl buffer (20 mM Tris, pH 8.0) in the presence of 1-15% (v/v) acetonitrile at a final concentration of 125-500 μM. In all the samples, the final concentrations of peptides and salt were always the same, and the spectra were corrected by subtracting the CD spectra of the appropriate reference solvent. Percent α-helix was calculated from molar ellipticity value at 222 nm.
The CD spectra were measured at 25° C. in 1×PBS in the presence of 1-20% (v/v) acetonitrile at a final concentration of peptide of 100 μM.
We used CD spectroscopy to determine the secondary structure characteristics of the stapled peptide NYAD-36. The corresponding linear peptide, NYAD-41, was used as control.

[3] = test system: HIV-1 IIIB; assay: Western blot of p24 and p55 after treatment of HIV-1 IIIB infected MT-2 cells; type: cell-based; details: anti-p24 mAb, graded concentrations, vs positive untreated control
Procedure: Control cells were uninfected MT-2 or infected and untreated MT-2. Following overnight incubation the culture supernatant was completely removed and replaced with fresh medium. On the fourth day post-infection cells and virus supernatants were harvested. The supernatants were filtered and ultra-centrifuged through a 20% sucrose cushion for 2 hr at 27,000 rpm with a SW28 rotor to concentrate the viral particles. Viral pellets were slowly re-suspended and lysed. Cells were collected and processed for protein extraction. […] Proteins were then visualized by Western Blot and immuno-detected with HIV-1 anti-p24 gag mAb.
Same amounts of viral and cellular proteins were immunodetected with an anti-p24 mAb.

[4] = test system: HIV-1 IIIB; type: cell-based
Procedure: The inhibitory activity of the constrained peptide described in Example 1 on infection by laboratory-adapted HIV-1 strains was determined as described in Jiang et al. (1991).

[5] = target: CTDM184A/W185A (Human immunodeficiency virus type 1 group M subtype B, UniProt P04591, M317A/W316A); assay: Isothermal titration calorimetry; parameters: species or system HIV-1; details: ITC, 25 mM sodium phosphate buffer (pH 7.3), single-binding model
Procedure: In a typical experiment, the ITC injection syringe was loaded with 625 μM CTDM184A/W185A protein dissolved in the dialysis buffer. […] Typically titrations consisted of 27 injections of 10 μl into the calorimetric cell, with 240-s equilibration between injections. The thermodynamic parameters were obtained and data were analysed using MicroCal Origin 7.0 software.

[6] = target: N-terminal CA (N-CA) (Human immunodeficiency virus type 1 group M subtype B, UniProt P04591); details: read-out: affinity (Kd) to N-terminal CA (N-CA); cited from earlier work
[7] = target: T1, C-terminal CA (C-CA) of capsid (Human immunodeficiency virus type 1 group M subtype B, UniProt P04591); details: estimated, read-out: dissociation constant (Kd); cited from earlier work
T1 construct: targeting the C-terminal CA (C-CA) of capsid

CC[C@H](C)[C@H](N)C(=O)N[C@@H](CO)C(=O)N[C@@H](Cc1ccccc1)C(=O)N[C@]1(C)CCCCCC/C=C\CCC[C@@](C)(C(=O)N[C@@H](CCC(=O)O)C(=O)N[C@@H](CO)C(=O)NCC(=O)N[C@@H](CO)C(N)=O)NC(=O)[C@H](Cc2ccc(O)cc2)NC(=O)[C@H](Cc2ccc(O)cc2)NC(=O)[C@H](CC(=O)O)NC(=O)[C@H](CC(C)C)NC(=O)[C@H](CC(C)C)NC(=O)[C@H](CCC(=O)O)NC1=O [NYAD-36] (H-ISF[R8]ELLDYY[S5]ESGS-NH2; staple (Z) 4-11)
viral infectivity of particles released by treated cells ([1]; 6.8 μM): very little to no viral infectivity
viral infectivity of particles released by treated cells ([1]; 13.5 μM): very little to no viral infectivity
infectivity respect to the control ([1]; about 7 μM): 7.7%
solubility: < 100 µM
secondary structure by CD ([2]; 25° C., 1×PBS, 1-20% acetonitrile, 100 μM peptide): α-helical structure
p24 and p55 levels in the cellular preparation [3]: the same decrease was not detected
p24 and p55 levels in the viral preparation (viral lysates) [3]: dose-dependent decrease
IC50 [4]: 1.5 ± 0.17 µM
ΔH [5]: −8.4 (±0.4) Kcal/mol

Cc1ccc(NC(=O)NCCSCc2ccc(CN(C)C)o2)cc1Cl [CAP-1]
Kd [6]: ~800 µM

ITFEDLLDYYGP [CAI]
Kd [7]: ~15 µM
secondary structure in solution by CD ([2]; 20° C., Tris-HCl buffer pH 8.0, 1-15% acetonitrile): random coil structure

— patent publication US8937154B2, “Stabilized therapeutic small helical antiviral peptides” (priority 2006, dated 2015)
